Laboratory results taken from US8962880B2, “Amorphous asiatic tromethamine salt and preparation method thereof” (Shanghai Institute of Pharmaceutical Industry, priority 2011, dated 2015).
Converted amounts (≈) assume the structure as drawn.

How the values were obtained:
[1] = in vivo, 50 mg

C[C@H]1[C@H](C)CC[C@]2(C(=O)O)CC[C@]3(C)C(=CC[C@@H]4[C@@]5(C)C[C@@H](O)[C@H](O)[C@@](C)(CO)[C@@H]5CC[C@]43C)[C@H]12 [asiatic acid, 2α,3β,23-trihydroxy-ursa-12-en-28-oic acid]
solubility (physchem; organic solvent or mixture): 33.1 mg/mL (≈ 67.7 mM) | solubility (physchem; water): 0.03 mg/mL (≈ 0.0614 mM)

C[C@H]1[C@H](C)CC[C@]2(C(=O)O)CC[C@]3(C)C(=CC[C@@H]4[C@@]5(C)C[C@@H](O)[C@H](O)[C@@](C)(CO)[C@@H]5CC[C@]43C)[C@H]12.NC(CO)(CO)CO [comparative sample, asiatic acid tromethamine salt]
bioavailability [1]: ca. 7.6%
